In patent US20080255117A1, “SULFONYLTRYPTOPHANOLS” (priority 2007, published 2008):

Molecular target: T1, human FSH receptor (Homo sapiens, UniProt P23945)
T1 construct: expressed in transfected cells; host or cells: CHO cells (hFSHR clone 16)
T1 sequence (P23945 18-695): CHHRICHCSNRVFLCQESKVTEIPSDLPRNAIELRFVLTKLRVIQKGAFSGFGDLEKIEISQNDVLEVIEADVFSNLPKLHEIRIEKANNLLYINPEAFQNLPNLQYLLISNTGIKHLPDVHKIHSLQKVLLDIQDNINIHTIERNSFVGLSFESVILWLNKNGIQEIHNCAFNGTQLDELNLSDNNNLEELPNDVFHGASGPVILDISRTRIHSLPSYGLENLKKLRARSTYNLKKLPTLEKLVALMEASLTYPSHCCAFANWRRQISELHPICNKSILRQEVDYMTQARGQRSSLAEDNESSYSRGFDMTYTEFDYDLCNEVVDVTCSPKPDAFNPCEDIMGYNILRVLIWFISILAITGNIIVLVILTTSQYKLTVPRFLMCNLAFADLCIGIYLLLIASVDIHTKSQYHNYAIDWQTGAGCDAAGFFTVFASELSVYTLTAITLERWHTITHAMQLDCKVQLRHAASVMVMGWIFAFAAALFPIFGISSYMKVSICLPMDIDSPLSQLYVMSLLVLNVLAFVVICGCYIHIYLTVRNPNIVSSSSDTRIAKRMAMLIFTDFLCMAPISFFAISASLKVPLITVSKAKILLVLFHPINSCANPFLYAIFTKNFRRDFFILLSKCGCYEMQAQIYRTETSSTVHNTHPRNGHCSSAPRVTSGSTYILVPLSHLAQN
Assay: HTRF assay for measuring cAMP in cells (FSH antagonism)
Assay type: cell-based
Details: FSH antagonistic effect in the HTRF assay; hFSHR clone 16 cells (CHO cells stably transfected with the human FSH receptor); in the presence of 1e-9 mol/l hFSH
Procedure: HTRF Assay for Measuring cAMP in Cells
The method is based on a competitive immunoassay between native cAMP, which has been produced by the cells, and cAMP which is labelled with cAMPD2 conjugate. The tracer binding was visualized by a monoclonal antibody, anti-cAMP labelled with cryptate [HTRF=homogeneous time-resolved fluorescence].
The specific signal is inversely proportional to the cAMP concentration of the samples employed.
The 665 nm/620 nm fluorescence ratio was evaluated.
The following material was used: 96-well plates for the tissue culture, 96-well plates with black edge and black base (e.g. Fluotrac 600 from Greiner), 96-well plates for the substance dilutions of polypropylene and cAMP Femtomolar (4000 wells Kit, CIS Bio International # 62AM5PEJ).
The following reagents were used: BSA (bovine serum albumin) Fraction V protease-free, IBMX (3-isobutyl-1-methylxanthine), hFSH (human follicle stimulating hormone), Triton X-100 analytical grade, potassium fluoride analytical grade, G 418 (Geneticin) and Accutase.
Buffer 1 (washing and testing buffer) contained PBS, 1 mM CaCl2, 1 mM MgCl2, 0.2% glucose; 0.1% BSA, 1 mM IBMX. […]
The values of the well ratio were averaged and then entered directly in SigmaPlot versus the concentrations. The maximum and minimum values were determined for each plate, and half the difference is to be regarded as IC50.

Q: For O=S(=O)(N[C@@H](CO)Cc1c[nH]c2ccccc12)c1cc(-c2ccc3ncccc3c2)cc2c1OCC2 [Example 39, 5-Quinolin-6-yl-2,3-dihydro-benzofuran-7-sulfonic acid [(R)-2-hydroxy-1-(1H-indol-3-ylmethyl)-ethyl]-amide], which IC50 is on record?
A: The IC50 was 5 µM.

Q: How did the IC50 turn out when N#CCc1ccc(-c2cc3c(c(S(=O)(=O)N[C@@H](CO)Cc4c[nH]c5ccccc45)c2)OCC3)cc1 [Example 52, 5-(4-Cyanomethyl-phenyl)-2,3-dihydro-benzofuran-7-sulfonic acid [(R)-2-hydroxy-1-(1H-indol-3-ylmethyl)-ethyl]-amide] was run?
A: Its IC50 is 10 µM.
